Like-named read-outs stand apart in the source and are kept apart here.
Columns and labels:
[1] = test system: SR; assay: NCI single-dose GI%, leukemia; assay type: cell-based, human; settings: 10.0 μM in one dose
[2] = test system: NCI-H23; assay: NCI single-dose GI%, NSC lung; assay type: cell-based, human; settings: 10.0 μM in one dose
[3] = test system: NCI-H322M; assay: NCI single-dose GI%, NSC lung; assay type: cell-based, human; settings: 10.0 μM in one dose
[4] = test system: NCI-H460; assay: NCI single-dose GI%, NSC lung; assay type: cell-based, human; settings: 10.0 μM in one dose
[5] = test system: HCT-116; assay: NCI single-dose GI%, colon; assay type: cell-based, human; settings: HCT-116, colon; 10.0 μM in one dose
[6] = test system: HCT-15; assay: NCI single-dose GI%, colon; assay type: cell-based, human; settings: HCT-15, colon; 10.0 μM in one dose
[7] = test system: HT29; assay: NCI single-dose GI%, colon; assay type: cell-based, human; settings: 10.0 μM in one dose
[8] = test system: KM12; assay: NCI single-dose GI%, colon; assay type: cell-based, human; settings: 10.0 μM in one dose
[9] = test system: SW-620; assay: NCI single-dose GI%, colon; assay type: cell-based, human; settings: SW-620, colon; 10.0 μM in one dose
[10] = test system: SF-268; assay: NCI single-dose GI%, CNS; assay type: cell-based, human; settings: SF-268, CNS; 10.0 μM in one dose
[11] = test system: SF-295; assay: NCI single-dose GI%, CNS; assay type: cell-based, human; settings: SF-295, CNS; 10.0 μM in one dose
[12] = test system: SNB-19; assay: NCI single-dose GI%, CNS; assay type: cell-based, human; settings: SNB-19, CNS; 10.0 μM in one dose
[13] = test system: SNB-75; assay: NCI single-dose GI%, CNS; assay type: cell-based, human; settings: SNB-75, CNS; 10.0 μM in one dose
[14] = test system: LOX IMVI; assay: NCI single-dose GI%, melanoma; assay type: cell-based, human; settings: 10.0 μM in one dose
[15] = test system: MALME-3M; assay: NCI single-dose GI%, melanoma; assay type: cell-based, human; settings: 10.0 μM in one dose
[16] = test system: M14; assay: NCI single-dose GI%, melanoma; assay type: cell-based, human; settings: 10.0 μM in one dose
[17] = test system: SK-MEL-2; assay: NCI single-dose GI%, melanoma; assay type: cell-based, human; settings: SK-MEL-2, melanoma; 10.0 μM in one dose
[18] = test system: SK-MEL-28; assay: NCI single-dose GI%, melanoma; assay type: cell-based, human; settings: SK-MEL-28, melanoma; 10.0 μM in one dose
[19] = test system: SK-MEL-5; assay: NCI single-dose GI%, melanoma; assay type: cell-based, human; settings: SK-MEL-5, melanoma; 10.0 μM in one dose
[20] = test system: UACC-62; assay: NCI single-dose GI%, melanoma; assay type: cell-based, human; settings: UACC-62, melanoma; 10.0 μM in one dose
[21] = test system: IGROV1; assay: NCI single-dose GI%, ovarian; assay type: cell-based, human; settings: 10.0 μM in one dose
[22] = test system: OVCAR-3; assay: NCI single-dose GI%, ovarian; assay type: cell-based, human; settings: OVCAR-3, ovarian; 10.0 μM in one dose
[23] = test system: OVCAR-4; assay: NCI single-dose GI%, ovarian; assay type: cell-based, human; settings: OVCAR-4, ovarian; 10.0 μM in one dose
[24] = test system: NCI/ADR-RES; assay: NCI single-dose GI%, ovarian; assay type: cell-based, human; settings: 10.0 μM in one dose
[25] = test system: SK-OV-3; assay: NCI single-dose GI%, ovarian; assay type: cell-based, human; settings: SK-OV-3, ovarian; 10.0 μM in one dose
[26] = test system: 786-0; assay: NCI single-dose GI%, renal; assay type: cell-based, human; settings: 786-0, renal; 10.0 μM in one dose
[27] = test system: ACHN; assay: NCI single-dose GI%, renal; assay type: cell-based, human; settings: 10.0 μM in one dose
[28] = test system: CAKI-1; assay: NCI single-dose GI%, renal; assay type: cell-based, human; settings: CAKI-1, renal; 10.0 μM in one dose
[29] = test system: UO-31; assay: NCI single-dose GI%, renal; assay type: cell-based, human; settings: UO-31, renal; 10.0 μM in one dose
[30] = test system: MDA-MB-231/ATCC; assay: NCI single-dose GI%, breast; assay type: cell-based, human; settings: 10.0 μM in one dose
[31] = test system: HS 578T; assay: NCI single-dose GI%, breast; assay type: cell-based, human; settings: 10.0 μM in one dose
[32] = test system: MDA-MB-468; assay: NCI single-dose GI%, breast; assay type: cell-based, human; settings: MDA-MB-468, breast; 10.0 μM in one dose
[33] = test system: Bcl-2 in MDA-MB-231 cells; assay: Apoptotic markers assay, Bcl-2; assay type: cell-based, human; settings: at IC50 concentration, vs untreated control
Protocol: The levels of Bax (apoptosis promoter), Bcl-2 (apoptosis inhibitor), and apoptosis coordination enzymes (caspase-3 and caspase-9) were measured.[78–80]

[34] = test system: breast adenocarcinoma MCF-7; assay: cells; settings: Homo sapiens, MCF7, 48 h, read-out: In vitro cytotoxicity IC50, MCF-7; MTT, 48 h drug exposure; mean ± SD of three experiments
[35] = target: EGFR (Homo sapiens, UniProt P00533); assay: EGFR tyrosine kinase inhibition assay
[36] = test system: RPMI-8226; assay: NCI single-dose GI%, leukemia; assay type: cell-based, human; settings: RPMI-8226, leukemia; 10.0 μM in one dose
[37] = test system: OVCAR-8; assay: NCI single-dose GI%, ovarian; assay type: cell-based, human; settings: OVCAR-8, ovarian; 10.0 μM in one dose
[38] = test system: CCRF-CEM; assay: NCI single-dose GI%, leukemia; assay type: cell-based, human; settings: 10.0 μM in one dose
[39] = test system: NCI-H226; assay: NCI single-dose GI%, NSC lung; assay type: cell-based, human; settings: 10.0 μM in one dose
[40] = test system: RXF 393; assay: NCI single-dose GI%, renal; assay type: cell-based, human; settings: RXF 393, renal; 10.0 μM in one dose
[41] = test system: SN12C; assay: NCI single-dose GI%, renal; assay type: cell-based, human; settings: 10.0 μM in one dose
[42] = test system: DU-145; assay: NCI single-dose GI%, prostate; assay type: cell-based, human; settings: DU-145, prostate; 10.0 μM in one dose
[43] = test system: breast adenocarcinoma MCF-7; settings: human, 48 h

EGFR, sequence (P00533 25-1210): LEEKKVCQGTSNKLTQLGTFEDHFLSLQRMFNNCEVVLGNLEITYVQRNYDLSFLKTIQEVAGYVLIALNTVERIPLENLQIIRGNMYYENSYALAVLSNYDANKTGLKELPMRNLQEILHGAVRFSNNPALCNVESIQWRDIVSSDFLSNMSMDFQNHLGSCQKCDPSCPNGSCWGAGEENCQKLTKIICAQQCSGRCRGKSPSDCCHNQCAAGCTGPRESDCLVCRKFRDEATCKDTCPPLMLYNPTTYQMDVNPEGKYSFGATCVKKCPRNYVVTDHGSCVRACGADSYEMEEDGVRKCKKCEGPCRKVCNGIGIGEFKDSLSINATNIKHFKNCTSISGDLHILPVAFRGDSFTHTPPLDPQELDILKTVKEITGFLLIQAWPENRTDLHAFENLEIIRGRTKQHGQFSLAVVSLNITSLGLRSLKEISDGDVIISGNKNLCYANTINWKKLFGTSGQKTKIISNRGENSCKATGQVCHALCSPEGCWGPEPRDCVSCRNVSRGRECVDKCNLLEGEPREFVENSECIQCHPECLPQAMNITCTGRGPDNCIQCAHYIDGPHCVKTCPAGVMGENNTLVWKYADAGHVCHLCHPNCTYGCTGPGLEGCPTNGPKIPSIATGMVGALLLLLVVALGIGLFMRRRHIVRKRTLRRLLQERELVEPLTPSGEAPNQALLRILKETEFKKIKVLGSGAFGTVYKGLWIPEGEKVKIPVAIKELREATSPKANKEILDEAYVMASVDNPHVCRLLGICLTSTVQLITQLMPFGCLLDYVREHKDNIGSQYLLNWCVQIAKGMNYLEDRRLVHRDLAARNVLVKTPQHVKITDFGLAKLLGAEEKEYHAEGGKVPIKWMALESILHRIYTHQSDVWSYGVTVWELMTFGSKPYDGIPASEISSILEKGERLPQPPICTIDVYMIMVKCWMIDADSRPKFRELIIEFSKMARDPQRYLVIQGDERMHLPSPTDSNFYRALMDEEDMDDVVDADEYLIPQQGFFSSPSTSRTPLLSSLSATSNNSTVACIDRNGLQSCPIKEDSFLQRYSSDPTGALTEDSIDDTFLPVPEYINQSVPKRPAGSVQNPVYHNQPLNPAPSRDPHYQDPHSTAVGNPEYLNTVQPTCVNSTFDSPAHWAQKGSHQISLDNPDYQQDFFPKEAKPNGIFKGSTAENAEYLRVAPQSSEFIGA

## Cc1ccc(C2=NN(C(=O)c3ccc(S(C)(=O)=O)cc3)C(c3ccc(C)cc3)C2)cc1 (stereo not shown) [Compound 18g, (3,5-Bis(4-tolyl)-4,5-dihydro-1H-pyrazol-1-yl)(4-(methylsulfonyl)phenyl)methanone]
[1]
  GI%: 50%
[2]
  GI%: 12%
[3]
  GI%: 12%
[4]
  GI%: 17%
[5]
  GI%: 37%
[6]
  GI%: 45%
[7]
  GI%: 15%
[8]
  GI%: 37%
[9]
  GI%: 25%
[10]
  GI%: 11%
[11]
  GI%: 30%
[12]
  GI%: 13%
[13]
  GI%: 30%
[14]
  GI%: 16%
[15]
  GI%: 14%
[16]
  GI%: 32%
[17]
  GI%: 33%
[18]
  GI%: 23%
[19]
  GI%: 38%
[20]
  GI%: 36%
[21]
  GI%: 23%
[22]
  GI%: 24%
[23]
  GI%: 22%
[24]
  GI%: 38%
[25]
  GI%: 26%
[26]
  GI%: 22%
[27]
  GI%: 12%
[28]
  GI%: 43%
[29]
  GI%: 26%
[30]
  GI%: 14%
[31]
  GI%: 15%
[32]
  GI%: 45%
[33]
  Bcl2 gene expression (fold change): 0.252 fold change
[34]
  IC50: 11.7 ± 0.96 µM
[35]
  IC50: 1.02 ± 0.034 µM

## CS(=O)(=O)c1ccc(C(=O)N2N=C(c3ccccc3)CC2c2ccc(F)cc2)cc1 (stereo not shown) [Compound 18c, (5-(4-Fluorophenyl)-3-phenyl-4,5-dihydro-1H-pyrazol-1-yl)(4-(methylsulfonyl)phenyl)methanone]
[36]
  GI%: 20%
[7]
  GI%: 19%
[13]
  GI%: 14%
[37]
  GI%: 20%
[25]
  GI%: 14%
[28]
  GI%: 22%
[29]
  GI%: 20%
[33]
  Bcl2 gene expression (fold change): 0.184 fold change
[34]
  IC50: 16.2 ± 0.72 µM
[35]
  IC50: 1.12 ± 0.037 µM

## CS(=O)(=O)c1ccc(C(=O)N2N=C(c3ccccc3)CC2c2ccccc2O)cc1 (stereo not shown) [Compound 18h, (5-(2-Hydroxyphenyl)-3-phenyl-4,5-dihydro-1H-pyrazol-1-yl)(4-(methylsulfonyl)phenyl)methanone]
[38]
  GI%: 41%
[36]
  GI%: 16%
[1]
  GI%: 30%
[39]
  GI%: 15%
[2]
  GI%: 12%
[3]
  GI%: 48%
[4]
  GI%: 54%
[5]
  GI%: 35%
[6]
  GI%: 56%
[7]
  GI%: 20%
[8]
  GI%: 21%
[10]
  GI%: 39%
[11]
  GI%: 23%
[12]
  GI%: 17%
[14]
  GI%: 34%
[15]
  GI%: 21%
[16]
  GI%: 29%
[17]
  GI%: 28%
[18]
  GI%: 11%
[19]
  GI%: 38%
[20]
  GI%: 12%
[21]
  GI%: 28%
[22]
  GI%: 35%
[23]
  GI%: 22%
[37]
  GI%: 41%
[24]
  GI%: 22%
[25]
  GI%: 25%
[26]
  GI%: 33%
[27]
  GI%: 25%
[28]
  GI%: 33%
[40]
  GI%: 29%
[41]
  GI%: 17%
[29]
  GI%: 47%
[42]
  GI%: 19%
[30]
  GI%: 32%
[32]
  GI%: 17%
[33]
  Bcl2 gene expression (fold change): 0.423 fold change
[43]
  IC50: 12.5 ± 0.55 µM
[34]
  IC50: 12.4 µM
[35]
  IC50: 0.574 ± 0.019 µM
